For experiment [1], the target named is T1, Adenosine receptor A1 (Bos taurus, UniProt P28190).
T1 sequence (P28190 whole entry): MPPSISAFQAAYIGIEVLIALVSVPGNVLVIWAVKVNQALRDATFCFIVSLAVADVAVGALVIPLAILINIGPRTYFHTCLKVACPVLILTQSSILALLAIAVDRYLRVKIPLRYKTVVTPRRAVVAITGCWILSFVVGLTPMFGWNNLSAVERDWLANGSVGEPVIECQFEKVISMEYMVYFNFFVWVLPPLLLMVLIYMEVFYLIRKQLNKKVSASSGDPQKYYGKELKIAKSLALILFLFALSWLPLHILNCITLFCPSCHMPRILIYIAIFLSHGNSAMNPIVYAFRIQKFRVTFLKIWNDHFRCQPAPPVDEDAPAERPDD
Description: Binding affinity against adenosine A1 receptor in bovine brain membranes by [3H]CHA displacement.

Experiment [2] has as its target T2, Adenosine receptor A1 (Homo sapiens, UniProt P30542).
T2 sequence (P30542 whole entry): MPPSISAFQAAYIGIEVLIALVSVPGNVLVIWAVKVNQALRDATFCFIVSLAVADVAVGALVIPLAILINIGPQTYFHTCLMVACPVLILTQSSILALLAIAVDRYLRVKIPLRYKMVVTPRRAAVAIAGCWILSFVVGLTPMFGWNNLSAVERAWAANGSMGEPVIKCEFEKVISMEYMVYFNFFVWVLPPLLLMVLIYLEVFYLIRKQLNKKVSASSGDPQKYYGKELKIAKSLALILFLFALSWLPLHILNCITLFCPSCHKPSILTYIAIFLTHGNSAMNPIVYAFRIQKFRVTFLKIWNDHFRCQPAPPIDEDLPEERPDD
The experiment is described as follows: biochemical.
Description: Binding affinity against human adenosine A1 receptor expressed in CHO cells using [3H]CHA

In experiment [3] the target is T3, Adenosine receptor A3 (Homo sapiens, UniProt P0DMS8).
T3 sequence (P0DMS8 whole entry): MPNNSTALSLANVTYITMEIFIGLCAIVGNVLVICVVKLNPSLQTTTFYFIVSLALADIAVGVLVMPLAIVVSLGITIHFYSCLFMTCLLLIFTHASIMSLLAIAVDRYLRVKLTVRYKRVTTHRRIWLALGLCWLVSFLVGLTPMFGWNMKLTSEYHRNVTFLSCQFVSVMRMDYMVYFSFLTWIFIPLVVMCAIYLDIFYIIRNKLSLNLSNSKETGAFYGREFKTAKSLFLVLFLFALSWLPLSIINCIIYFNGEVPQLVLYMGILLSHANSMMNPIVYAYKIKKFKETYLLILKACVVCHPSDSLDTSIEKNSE
The experiment in a line: biochemical.
Description: Binding affinity against human adenosine A3 receptor expressed in CHO cells by [125I]AB-MECA displacement.

For experiment [4], the target named is T4, Adenosine receptor A3 (Homo sapiens) (UniProt P0DMS8).
T4 sequence (whole entry): T3 sequence (P0DMS8 whole entry)
The experiment in a line: Percent inhibition against human adenosine A3 receptor expressed in CHO cells using [125I]AB-MECA at 1 uM. Type of experiment: cell-based.

The test system of experiment [5] is Adenosine receptor A2a (Bos taurus). The experiment is described as follows: Inhibition of [3H]-CGS- 21680 binding to adenosine A2a receptor of bovine striatal membranes.
The target in experiment [6] is Adenosine receptor A2a (Bos taurus).
The target of experiment [7] is T5, Adenosine receptor A1 (Bos taurus) (UniProt P28190).
T5 sequence (whole entry): T1 sequence (P28190 whole entry)
The experiment is described as follows: Inhibition of [3H]CHA binding to adenosine A1 receptor of bovine brain membranes. Type of experiment: cell membranes.

The target of experiment [8] is T6, Adenosine receptor A1 (Homo sapiens) (UniProt P30542).
T6 sequence (whole entry): T2 sequence (P30542 whole entry)
The experiment in a line: Percent inhibition against human adenosine A1 receptor expressed in CHO cells using [3H]CHA at 10 uM. Type of experiment: cell-based.

The target of experiment [9] is Adenosine receptors; A2a & A3 (Homo sapiens) (UniProt P0DMS8+P29274). The experiment is described as follows: Selectivity as ratio of affinity against human adenosine A3 and A2A receptors. Type of experiment: protein assay.
Experiment [10] deals with Adenosine receptors; A1 & A3 (Homo sapiens) (UniProt P30542+P0DMS8). The experiment in a line: Selectivity as ratio of affinity against human adenosine A3 and A1 receptors. Type of experiment: protein assay.
The target in experiment [11] is T3, Adenosine receptor A3. The experiment in a line: Effective concentration for inhibition of NECA-stimulated [35S]GTP-gamma-S, binding at human adenosine A3 receptor expressed in CHO cells. Type of experiment: functional, cell-based. A general note: GTPγS resists hydrolysis and so accumulates on activated G proteins.

The values that follow come from ChEMBL document CHEMBL1148352, “1,2,4-triazolo[4,3-a]quinoxalin-1-one moiety as an attractive scaffold to develop new potent and selective human A3 adenosine receptor antagonists: synthesis, pharmacological, and ligand-receptor modeling studies” (J Med Chem, 2004).

As a reminder, the Ki is the dissociation constant of the complex between target and ligand, obtained from inhibition or displacement. As a reminder, the EC50 is the concentration that produces a half-maximal response. A low value points to higher potency in that assay.

Each structure is given as a SMILES string.

Adenosine receptors; A2a & A3 (Homo sapiens), sequence (P29274 whole entry, looked up, one chain of several): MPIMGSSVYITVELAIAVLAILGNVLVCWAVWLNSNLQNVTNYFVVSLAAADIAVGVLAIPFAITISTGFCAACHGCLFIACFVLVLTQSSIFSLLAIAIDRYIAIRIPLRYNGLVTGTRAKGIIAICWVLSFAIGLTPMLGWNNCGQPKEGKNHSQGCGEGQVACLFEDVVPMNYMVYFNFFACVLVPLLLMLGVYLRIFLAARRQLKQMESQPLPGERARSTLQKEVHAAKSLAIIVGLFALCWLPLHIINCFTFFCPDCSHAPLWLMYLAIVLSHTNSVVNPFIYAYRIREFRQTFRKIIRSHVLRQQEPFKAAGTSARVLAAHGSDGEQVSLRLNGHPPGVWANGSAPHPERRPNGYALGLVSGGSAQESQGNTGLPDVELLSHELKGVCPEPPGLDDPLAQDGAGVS

Take `Nc1nc2c([N+](=O)[O-])cccc2n2c(=O)n(-c3ccccc3)nc12`: the Ki was determined as 82 nM at Adenosine receptor A1 [1], 870 nM at Adenosine receptor A1 [2] and 4.75 nM at Adenosine receptor A3 [3].
As for `Nc1nc2c([N+](=O)[O-])cccc2n2c(=O)n(-c3ccc([N+](=O)[O-])cc3)nc12`, the I in experiment [4] came out at 30%; in experiment [5], 2.7%. On Adenosine receptor A1 [1], this compound displayed an inhibitory constant (Ki) of 155 nM.
With `CC(=O)Oc1ccc(-n2nc3c(=O)[nH]c4ccccc4n3c2=O)cc1`, the Ki turned out to be 26 nM on Adenosine receptor A1 [1], 9700 nM in experiment [6], 320 nM on Adenosine receptor A1 [2] and 11.2 nM on Adenosine receptor A3 [3].
Take `COc1ccc(-n2nc3c(=O)[nH]c4c([N+](=O)[O-])cccc4n3c2=O)cc1`: the I is 25% in [7], 0% in experiment [8] and 14% in experiment [5].
Consider `O=c1[nH]c2c([N+](=O)[O-])cccc2n2c(=O)n(-c3ccc(O)cc3)nc12`, for which the results for the I in [4], in experiment [7] and in [5] were 21%, 38% and 4%, respectively.
Take `COc1ccc(-n2nc3c(N)nc4c([N+](=O)[O-])cccc4n3c2=O)cc1`: the I came to 19% in experiment [7], 45% in experiment [8] and 16.5% in [5]. At Adenosine receptor A3 [3], this compound yielded a Ki of 47 nM.
Consider `O=c1[nH]c2ccccc2n2c(=O)n(-c3ccc([N+](=O)[O-])cc3)nc12`, for which the Selectivity ratio in [9] and in experiment [10] was above 16600 each time. Besides, the I in experiment [7] amounted to 19%; in experiment [8], 32%; in experiment [5], 21%. At Adenosine receptor A3 [11], the response was half-maximal at 5.4 nM (EC50). The compound further gave a Ki on Adenosine receptor A3 [3] of 0.6 nM.
As to `COc1ccc(-n2nc3c(=O)[nH]c4ccccc4n3c2=O)cc1`, the I in experiment [8] amounted to 42%.
Take `CCOc1ccc(-n2nc3c(=O)[nH]c4ccccc4n3c2=O)cc1`: the Ki on Adenosine receptor A3 [3] turned out to be 175 nM.
For `Nc1nc2ccccc2n2c(=O)n(-c3ccc(O)cc3)nc12`, the Ki on Adenosine receptor A1 [1] was 116 nM; in experiment [6], 80 nM; on Adenosine receptor A3 [3] it was 73.2 nM.
On to `CN(C)c1ccc(-n2nc3c(=O)[nH]c4ccccc4n3c2=O)cc1`, for which the figures for the Ki on Adenosine receptor A1 [1] and at Adenosine receptor A3 [3] were 578 nM and 429 nM, respectively. In [5], this compound displayed an I of 0%.
With `COc1ccc(-n2nc3c(N)nc4c(N)cccc4n3c2=O)cc1`, the I in experiment [7] was 38%. Moreover, the figures for the Ki (in experiment [6]; at Adenosine receptor A1 [2]; at Adenosine receptor A3 [3]) were 1050 nM, 186 nM and 22 nM, respectively.
Take `O=c1[nH]c2ccccc2n2c(=O)n(-c3ccc(O)cc3)nc12`: the Ki amounted to 30.6 nM on Adenosine receptor A1 [1], 168 nM at Adenosine receptor A1 [2] and 47 nM at Adenosine receptor A3 [3].
For `Nc1cccc2c1[nH]c(=O)c1nn(-c3ccc(O)cc3)c(=O)n12`, the I in [4] was found to be 39%; in [5], 36%. At Adenosine receptor A1 [1], this compound displayed a Ki of 996 nM.
Regarding `COc1ccc(-n2nc3c(=O)[nH]c4c(N)cccc4n3c2=O)cc1`, the values for the I in experiment [7] and in experiment [5] were 16% and 23%, respectively. The same compound registered a Ki on Adenosine receptor A3 [3] of 83 nM.
In the case of `O=c1[nH]c2c([N+](=O)[O-])cccc2n2c(=O)n(-c3ccc([N+](=O)[O-])cc3)nc12`, the I in [4] was 24%; in experiment [5] it was 0%. This compound also showed a Ki on Adenosine receptor A1 [1] of 91 nM.
As for `Nc1nc2ccccc2n2c(=O)n(-c3ccc([N+](=O)[O-])cc3)nc12`, the I in experiment [4] worked out at 28%; in experiment [7], 11.9%; in experiment [5], 31%.
The corresponding values for `CC(=O)Oc1ccc(-n2nc3c(=O)[nH]c4c([N+](=O)[O-])cccc4n3c2=O)cc1` are 20%, 21.3% and 0%.
In the case of `Nc1ccc(-n2nc3c(N)nc4ccccc4n3c2=O)cc1`, the results for the Ki (at Adenosine receptor A1 [1]; in experiment [6]; on Adenosine receptor A3 [3]) were 48 nM, 3.6 nM and 335 nM, respectively.
`COc1ccc(-n2nc3c(N)nc4ccccc4n3c2=O)cc1` gave a Ki at Adenosine receptor A1 [2] of 69 nM. This lies in the double-digit nanomolar range.
For the compound `Nc1cccc2c1nc(N)c1nn(-c3ccc(O)cc3)c(=O)n12`, the results for the Ki (on Adenosine receptor A1 [1]; in experiment [6]; on Adenosine receptor A3 [3]) were 61 nM, 181 nM and 176 nM, respectively.
Take `CCOc1ccc(-n2nc3c(N)nc4ccccc4n3c2=O)cc1`: the Ki on Adenosine receptor A1 [1] came to 537 nM; in experiment [6], 13000 nM; at Adenosine receptor A3 [3] it was 203 nM.
Consider `Nc1nc2c([N+](=O)[O-])cccc2n2c(=O)n(-c3ccc(O)cc3)nc12`, for which the I in experiment [4] was 45%. For the same compound, the Ki on Adenosine receptor A1 [1] turned out to be 446 nM; in experiment [6], 1600 nM.
On to `Nc1ccc(-n2nc3c(=O)[nH]c4ccccc4n3c2=O)cc1`, for which the inhibitory constant (Ki) on Adenosine receptor A3 [3] was 3600 nM.
